Results reported in the supplement of paper PMC11208160.

experiment: recombinant UMI read abundance after kanamycin selection (control-corrected) (log10(CPM+1)); higher = more efficient recombination; extreme values may be limits of the assay; sequences stand for … in AGTGCAGAGAAAATCGGCCAGTTTTCTCTGCCTGCAGTCCGCATGCCGTGGGACCCCTTGGGTTCTAACCTGTTGCCTAGATTTATGCAGCGGACTGCCTTTCTCCCAAAGTGATAAACCGG…AGGTTGGTTTCACT; site = the 11-nt donor
Method: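 Pooled E. coli donor-specificity screen for the IS621 bridge recombinase. Each library member carries a reprogrammed 11-nt donor and a full-length LE bridge RNA expressed in cis from the natural promoter, with a paired donor-binding loop (8-nt LDG + 4-nt RDG) and a target-binding loop fixed to T5. It is co-electroporated with a T5 target plasmid; recombinase is induced with 0.07 mM IPTG and recombinants are selected on kanamycin. UMIs are counted as CPM, averaged over two biological replicates and corrected by the unselected control. Molecule = full bridge RNA written as DNA, built from the T5 scaffold: LDG = donor specificity nt 1-8, RDG = reverse complement of nt 8-11.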
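Further: IS621 bridge recombinase in Escherichia coli cells against a fixed T5 target plasmid.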

In order of falling “recombinant UMI read abundance (log10)” value:
1. ACAATGTCATGGACCGGTTTTCCCGGTAATCCGTATTTGCG (site ACAATGTCTCG)  3.04
2. CGATAAACATGGACCGGTTTTCCCGGTAATCCGTATTTGCG (site CGATAAACTCG)  2.63
3. GATGTGTCATGGACCGGTTTTCCCGGTAATCCGTATTTGAC (site GATGTGTCTGT)  2.61
4. ACAGTATCATGGACCGGTTTTCCCGGTAATCCGTATTTGGT (site ACAGTATCTAC)  2.61
5. AGGATAACATGGACCGGTTTTCCCGGTAATCCGTATTTGCA (site AGGATAACTTG)  2.55
6. CAGACATCATGGACCGGTTTTCCCGGTAATCCGTATTTGCT (site CAGACATCTAG)  2.46
7. GATAGGACATGGACCGGTTTTCCCGGTAATCCGTATTTGAC (site GATAGGACTGT)  2.34
8. CAATGCACATGGACCGGTTTTCCCGGTAATCCGTATTTGAA (site CAATGCACTTT)  1.97
9. TCGAAGACATGGACCGGTTTTCCCGGTAATCCGTATTTGCA (site TCGAAGACTTG)  1.88
10. CGTGAGTCATGGACCGGTTTTCCCGGTAATCCGTATTTGCC (site CGAGAGTCTGG)  1.79
11. GTACATGCATGGACCGGTTTTCCCGGTAATCCGTATTTGGT (site GTACATGCTAC)  1.43
12. CATCTCTCATGGACCGGTTTTCCCGGTAATCCGTATTTGTA (site CCTCTCTCTTA)  1.42
13. CGTGGAACATGGACCGGTTTTCCCGGTAATCCGTATTTGGT (site CGTGGAACTAC)  1.33
14. ACAGTATCATGGACCGGTTTTCCCGGTAATCCGTATTTGCA (site ACATGATCTTG)  1.29
15. TGCACGTCATGGACCGGTTTTCCCGGTAATCCGTATTTGTC (site TGCACGTCTGA)  1.26
16. AATGTAACATGGACCGGTTTTCCCGGTAATCCGTATTTGCT (site AATGTAACTGG)  1.14
17. ACAGTATCATGGACCGGTTTTCCCGGTAATCCGTATTTGCA (site ACAGTATCTCA)  0.878
18. GTTCGAACATGGACCGGTTTTCCCGGTAATCCGTATTTGGC (site GTTCGAACTGC)  0.869
19. ACAGTATCATGGACCGGTTTTCCCGGTAATCCGTATTTGCA (site CCAGGATCTTG)  0.811
20. TCATAGACATGGACCGGTTTTCCCGGTAATCCGTATTTGGA (site TCATAGACTTC)  0.712
21. GCTACTGCATGGACCGGTTTTCCCGGTAATCCGTATTTGTC (site GCTACTGCTGG)  0.571
22. CCCCATACATGGACCGGTTTTCCCGGTAATCCGTATTTGTA (site CCCCATACTTA)  0.512
23. GGCCACACATGGACCGGTTTTCCCGGTAATCCGTATTTGTT (site GGCCACACTAA)  0.485
24. AATGAAACATGGACCGGTTTTCCCGGTAATCCGTATTTGCT (site AATGCAACTAG)  0.479
25. ATTTAGACATGGACCGGTTTTCCCGGTAATCCGTATTTGGT (site ATTCAGACTAC)  0.475
26. CTAGAAACATGGACCGGTTTTCCCGGTAATCCGTATTTGCA (site CTTGAAACTTG)  0.422
27. GAAGATTCATGGACCGGTTTTCCCGGTAATCCGTATTTGTT (site GAAAATTCTAA)  0.371
28. CTACTAACATGGACCGGTTTTCCCGGTAATCCGTATTTGGA (site CGACTAACTTC)  0.339
29. TGTACAACATGGACCGGTTTTCCCGGTAATCCGTATTTGAC (site TGTACATCTGT)  0.295
30. CGGTCATCATGGACCGGTTTTCCCGGTAATCCGTATTTGTT (site CGGTCATCTAA)  0.27
31. CTTACTACATGGACCGGTTTTCCCGGTAATCCGTATTTGGA (site CTTACTACTTC)  0.205
32. AACCCGGCATGGACCGGTTTTCCCGGTAATCCGTATTTGGA (site AACCCGGCTTC)  0.181
33. AAAGTCACATGGACCGGTTTTCCCGGTAATCCGTATTTGGG (site TAAGTCACTCC)  0.158
34. AGTTCCCCATGGACCGGTTTTCCCGGTAATCCGTATTTGTA (site AGTTCCCCTTA)  0.124
35. AGGACTACATGGACCGGTTTTCCCGGTAATCCGTATTTGAC (site AGGACTACTTT)  0.0694
36. CGGAACCCATGGACCGGTTTTCCCGGTAATCCGTATTTGTT (site CGGAAACCTAA)  0.0541
37. TGCTAGGCATGGACCGGTTTTCCCGGTAATCCGTATTTGGC (site TGCTAGGCTAC)  0.0365
38. GTACATGCATGGACCGGTTTTCCCGGTAATCCGTATTTGGT (site GTGCATGCTAC)  0.0209
39. ACTAGTGCATGGACCGGTTTTCCCGGTAATCCGTATTTGAT (site ACTAGTGCTAC)  0.0203
40. AGGTTCCCATGGACCGGTTTTCCCGGTAATCCGTATTTGTG (site AGGTCCCCTCA)  0.019
41. AACTAGACATGGACCGGTTTTCCCGGTAATCCGTATTTGGG (site AGCTAGACTCC)  0.0187
42. CGTCAGACATGGACCGGTTTTCCCGGTAATCCGTATTTGAG (site CGTTAGACTCT)  0.0174
43. CTTGCGGCATGGACCGGTTTTCCCGGTAATCCGTATTTGGG (site CTTGCGGCTCC)  0.0147
44. CCCGGTGCATGGACCGGTTTTCCCGGTAATCCGTATTTGCA (site CCCGGTCCTTG)  0.0126
45. CAAAGCTCATGGACCGGTTTTCCCGGTAATCCGTATTTGAA (site CAACGCTCTTT)  0.0122
46. ACCTAGGCATGGACCGGTTTTCCCGGTAATCCGTATTTGGG (site ACCTAGGCTCC)  0.0121
47. ACCTAGACATGGACCGGTTTTCCCGGTAATCCGTATTTGGG (site ACCTAGCCTCC)  0.0119
48. TGTGCCCCATGGACCGGTTTTCCCGGTAATCCGTATTTGTA (site TGTCCCCCTTA)  0.0113
49. TACTCGACATGGACCGGTTTTCCCGGTAATCCGTATTTGCT (site TACTGGACTAG)  0.00865
50. TCCACCCCATGGACCGGTTTTCCCGGTAATCCGTATTTGCG (site TCCACCTCTCG)  0.00748
51. CCTAGAACATGGACCGGTTTTCCCGGTAATCCGTATTTGAG (site CCTAGAACTCT)  0.00591
52. AGGACTACATGGACCGGTTTTCCCGGTAATCCGTATTTGAC (site AGGACGACTGT)  0.00571
53. TACTTGGCATGGACCGGTTTTCCCGGTAATCCGTATTTGCT (site TACTTGCCTAG)  0.00558
54. CCTAAAACATGGACCGGTTTTCCCGGTAATCCGTATTTGAT (site CCTAAACCTAT)  0.00551
55. CACGGTCCATGGACCGGTTTTCCCGGTAATCCGTATTTGTT (site CACGGGCCTAA)  0.00486
56. ATCCATACATGGACCGGTTTTCCCGGTAATCCGTATTTGAC (site ATCTATACTGT)  0
57. CCGTTTACATGGACCGGTTTTCCCGGTAATCCGTATTTGCT (site CCGGTTACTAG)  0
58. CCAGTACCATGGACCGGTTTTCCCGGTAATCCGTATTTGCA (site CCAGTACCTTG)  0
59. TATACACCATGGACCGGTTTTCCCGGTAATCCGTATTTGAC (site TGTACACCTGT)  0
60. GGCGACCCATGGACCGGTTTTCCCGGTAATCCGTATTTGTT (site GGCAACCCTAA)  0
61. GATTACCCATGGACCGGTTTTCCCGGTAATCCGTATTTGCT (site GATTAGCCTAG)  0
62. GGATCATCATGGACCGGTTTTCCCGGTAATCCGTATTTGCC (site CGATCATCTAG)  0
63. CGATAATCATGGACCGGTTTTCCCGGTAATCCGTATTTGCT (site CGATCATCTAG)  0
64. AAGAATACATGGACCGGTTTTCCCGGTAATCCGTATTTGCA (site GAGAATACTTG)  0
65. CCCTAGCCATGGACCGGTTTTCCCGGTAATCCGTATTTGCC (site CCCTTGCCTGG)  0
66. GTTGTTGCATGGACCGGTTTTCCCGGTAATCCGTATTTGGT (site GTTGTTTCTAC)  0
67. GATTGGACATGGACCGGTTTTCCCGGTAATCCGTATTTGAC (site GATTGGGCTGT)  0
68. TGTACATCATGGACCGGTTTTCCCGGTAATCCGTATTTGAC (site TGTACACCTGT)  0
69. AGCCTTTCATGGACCGGTTTTCCCGGTAATCCGTATTTGAC (site AGCCTTTCTTT)  0
70. AATCTAACATGGACCGGTTTTCCCGGTAATCCGTATTTGCT (site AATTTAACTAG)  0
71. TGTGGAACATGGACCGGTTTTCCCGGTAATCCGTATTTGTT (site GGTGGAACTAA)  0
72. GATTGGACATGGACCGGTTTTCCCGGTAATCCGTATTTGAC (site GCTTGGACTGT)  0
